The text below walks through data of patent US20230157996A1, “SMALL-MOLECULE INHIBITOR TARGETING EB VIRUS NUCLEAR ANTIGEN PROTEIN, PREPARATION METHOD AND USE THEREOF” (priority 2020, published 2023).

Assay [1] concerns C666-1 cells. Put plainly: C666-1 cell viability single concentration (50 μM) inhibition rate (Resazurin). The settings on record: Homo sapiens, C6661, 72 h. The assay is classed as cell-based. Summed up:
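Resazurin fluorescence (560/590 nm, 3 h development) gave the proliferation inhibition rate, normalised to DMSO-treated and cell-free blank wells. Compound was tested at a single 50 μmol/L final concentration on C666-1 cells for 72 h at 37° C, with duplicate wells, after 24 h seeding.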
For orientation: Alamar Blue is a resazurin reagent that responds to reducing activity.

In assay [2] the test system is C666-1 cells. Briefly: C666-1 cell viability, EC50 from 8-point dilution (Resazurin). The assay is classed as cell-based. The settings on record: Homo sapiens, C6661, 72 h, 100-0.78 μmol/L, read-out: EC50 Quantitation. As to the method:
In order to assess the effect of the EBNA1 inhibitor at the cellular level, the cytotoxicity assay was performed. The EBNA1 inhibitor selectively killed EBV-positive cell lines ([…]-1 cells), but had no toxicity to EBV-negative cell lines (HONE1 cells and HK1 cells). In the test, 100 μL different cell lines were inoculated in a transparent 96-well plate, each well containing 5×10^3 […]-1 cells. After the cells were cultured in an incubator with 5% carbon dioxide at 37° C. for 24 hours, 10 μL compound at a concentration range from 1 mmol/L to 7.8 μmol/L was added into each well (8 points, 2-fold dilution, the final concentration was 100-0.78 μmol/L), and treated in the incubator with carbon dioxide at 37° C. for 72 hours. The cell viability was assessed using a redox indicator Resazurin. Specifically, 10 μL Resazurin at a concentration of 600 μmol/L was added into each well, and incubated at 37° C. for 3 hours, and a Tecan microplate reader was used to detect the fluorescence signal at an excitation wavelength of 560 nm and an emission wavelength of 590 nm. A software was used to fit the inhibition curve and calculate the concentration for 50% of maximal effect (EC50). The selectivity of compound activity was assessed by comparing the EC50 of EBV-positive and EBV-negative cell lines.

The mark [3] stands for this setting: 50 μM compound, 72 hours, C666-1 cells, read-out: C666-1 cell viability single concentration (50 μM) inhibition rate, Ratio* (Inh %).
Where [4] appears, read: C666-1 cells, single concentration, read-out: Inhibition Rate (Inh %).
The mark [5] stands for this setting: read-out: C666-1 cell viability single concentration (50 μM) inhibition rate, Ratio* (Inh %).

Where two headings read alike, the source gives them in different places.

In general, EC50 refers to the concentration giving half of the maximal effect. With `COC(=O)c1cccc(N2CC(OC(=O)Nc3ccc(OC)cc3OC)C2)c1-n1cccc1` [Example 146, Methyl 3-(3-(((2,4-dimethoxyphenyl)carbamoyl)oxy)azetidin-1-yl)-2-(1H-pyrrol-1-yl)benzoate], the inhibition at 50 µM in assay [1] (setting [3]) and in assay [1] (setting [4]) was 10 to 30% in each case. In addition, in assay [2], the EC50 was over 100 µM.
For the compound `COC(=O)c1cccc(N2CC(OC(=S)Nc3ccc(Cl)cc3)C2)c1-n1cccc1` [Example 147, Methyl 3-(3-(((4-chlorophenyl)thiocarbamoyl)oxy)azetidin-1-yl)-2-(1H-pyrrol-1-yl)benzoate], the inhibition at 50 µM in assay [1] (setting [3]) and in assay [1] (setting [4]) was 30 to 50% in each case. Further, the EC50 in assay [2] was 50 to 75 µM.
Turning to `COC(=O)c1cccc(N2CC(OC(=O)Nc3ccc(Oc4ccccc4)cc3)C2)c1-n1cccc1` [Example 152, Methyl 3-(3-(((4-phenoxyphenyl)carbamoyl)oxy)azetidin-1-yl)-2-(1H-pyrrol-1-yl)benzoate], the inhibition at 50 µM in assay [1] (setting [3]) and in assay [1] (setting [4]) was under 10% in each case. Moreover, in assay [2], the EC50 was over 100 µM.
Consider `COC(=O)c1cccc(N2CC(OC(=O)Nc3ccc(OC(F)(F)F)cc3)C2)c1-n1cccc1` [Example 153, Methyl 2-(1H-pyrrol-1-yl)-3-(3-(((4-(trifluoromethoxy)phenyl)carbamoyl)oxy)azetidin-1-yl)benzoate], for which the inhibition at 50 µM in assay [1] (setting [3]) and in assay [1] (setting [4]) was 10 to 30% each time. Besides, in assay [2], the EC50 lay in the range of 75 to 100 µM.
On to `COC(=O)c1cccc(N2CC(OC(=O)NCc3ccc(C(F)(F)F)cc3)C2)c1-n1cccc1` [Example 154, Methyl 2-(1H-pyrrol-1-yl)-3-(3-(((4-(trifluoromethyl)benzyl)carbamoyl)oxy)azetidin-1-yl)benzoate], for which the inhibition at 50 µM in assay [1] (setting [3]) and in assay [1] (setting [4]) was 10 to 30% in each case. The EC50 in assay [2] is over 100 µM.
Take `COC(=O)c1cccc(N2CC(=CC(=O)OC(C)(C)C)C2)c1-n1cccc1` [Example 189, Methyl 3-(3-(2-(tert-butoxy)-2-oxovinyl)azetidin-1-yl)-2-(1H-pyrrol-1-yl)benzoate]: the inhibition at 50 µM in assay [1] (setting [3]) and in assay [1] (setting [4]) was 10 to 30% throughout. The concentration giving a half-maximal response (EC50) in assay [2] lay within 75 to 100 µM.
As for `COc1cccc(Oc2ccc(OC3CN(c4cccc(C(=O)O)c4-n4cccc4)C3)cc2)c1` [Example 197, 3-(3-(4-(3-methoxyphenoxy)phenoxy)azetidin-1-yl)-2-(1H-pyrrol-1-yl) benzoic acid], the inhibition at 50 µM in assay [1] (setting [3]) and in assay [1] (setting [4]) was 10 to 30% throughout. Also, in assay [2], the EC50 was over 100 µM.
As for `COC(=O)c1cccc(N2CC(Oc3ccc(COC(=O)OC4CCOCC4)cc3)C2)c1-n1cccc1` [Example 234, Methyl 3-(3-(4-(((((tetrahydro-2H-pyran-4-yl)oxy)carbonyl)oxy)methyl)phenoxy)azetidin-1-yl)-2-(1H-pyrrol-1-yl)benzoate], the inhibition at 50 µM in assay [1] (setting [3]) and in assay [1] (setting [4]) was over 50% in each case. Further, the EC50 in assay [2] was under 50 µM.
In the case of `COC(=O)c1cccc(N2CC(Oc3ccc(C(=O)Nc4ccccc4)cc3)C2)c1-n1cccc1` [Example 263, Methyl 3-(3-(4-(phenylcarbamoyl)phenoxy)azetidin-1-yl)-2-(1H-pyrrol-1-yl)benzoate], the inhibition at 50 µM in assay [1] (setting [3]) and in assay [1] (setting [4]) was 10 to 30% throughout. For the same compound, in assay [2], the half-maximal effective concentration (EC50) was over 100 µM.
`CCNC(=O)c1ccc(OC2CN(c3cccc(C(=O)O)c3-n3cccc3)C2)cc1` [Example 264, 3-(3-(4-(ethylcarbamoyl)phenoxy)azetidin-1-yl)-2-(1H-pyrrol-1-yl)benzoic acid]: the inhibition at 50 µM in assay [1] (setting [3]) and in assay [1] (setting [4]) was under 10% in each case. The EC50 in assay [2] is over 100 µM.
Take `O=C(O)c1cccc(N2CC(Oc3ccc(C(=O)N4CCOCC4)cc3)C2)c1-n1cccc1` [Example 266, 3-(3-(4-(morpholinyl-4-carbonyl)phenoxy)azetidin-1-yl)-2-(1H-pyrrol-1-yl)benzoic acid]: the inhibition at 50 µM in assay [1] (setting [3]) and in assay [1] (setting [4]) was under 10% each time. Also, the concentration giving a half-maximal response (EC50) in assay [2] is over 100 µM.
On to `O=C(O)c1cccc(N2CC(Oc3ccc(Oc4ccc(C(F)(F)F)cc4)cc3)C2)c1-n1cccc1` [Example 292, 3-(3-(4-(4-(trifluoromethyl)phenoxy)phenoxy)azetidin-1-yl)2-(1H-pyrrol-1-yl)benzoic acid], for which the inhibition at 50 µM in assay [1] (setting [3]) and in assay [1] (setting [4]) was over 50% in each case. Besides, the EC50 in assay [2] is under 50 µM.
Consider `O=C(Nc1ccccc1)c1ccc(OC2CN(c3cccc(C(=O)O)c3-n3cccc3)C2)cc1` [Example 302, 3-(3-(4-(phenylcarbamoyl)phenoxy)azetidin-1-yl)-2-(1H-pyrrol-1-yl)benzoic acid], for which the inhibition at 50 µM in assay [1] (setting [3]) and in assay [1] (setting [4]) was 10 to 30% throughout. The concentration for a half-maximal effect (EC50) in assay [2] was over 100 µM.
As to `COC(=O)c1cccc(N2CC(Oc3ccc(COC4COC4)cc3)C2)c1-n1cccc1` [Example 377, Methyl 3-(3-(4-((oxetanyl-3-oxy)methyl)phenoxy)azetidin-1-yl)-2-(1H-pyrrol-1-yl)benzoate], the inhibition at 50 µM in assay [1] (setting [3]) was over 50%.
On the same count and under the same terms, under `COC(=O)c1cccc(N2CC(Oc3ccc(COC4CCN(C(C)=O)CC4)cc3)C2)c1-n1cccc1` [Example 378] stands under 10%; under `O=C(O)c1cccc(C#CN2Cc3ccccc3S2(=O)=O)c1-n1cccc1` [Example 379], over 50%.
With `Cc1ccc(S(=O)(=O)N(C#Cc2cccc(C(=O)O)c2-n2cccc2)Cc2ccccc2)cc1` [Example 380, 3-(((N-benzyl-4-methylphenyl)sulfonamido)ethynyl)-2-(1H-pyrrol-1-yl)benzoic acid], the inhibition at 50 µM in assay [1] (setting [3]) is under 10%.
On to `CS(=O)(=O)N(C#Cc1cccc(C(=O)O)c1-n1cccc1)Cc1ccccc1` [Example 382, Lithium 3-((N-benzylmethylsulfonamido)ethynyl)-2-(1H-pyrrol-1-yl)benzoate], for which, in assay [1] (setting [5]), the inhibition at 50 µM is under 10%.
Consider `Cc1ccc(S(=O)(=O)N(C)C#Cc2cccc(C(=O)O)c2-n2cccc2)cc1` [Example 384], for which, in assay [1] (setting [3]), the inhibition at 50 µM was under 10%.
Same read-out and setting: under `COC(=O)c1cccc(C#CN(Cc2ccc(OC)cc2)S(=O)(=O)c2ccc(C)cc2)c1-n1cccc1` [Example 385] stands 10 to 30%.
In the case of `COc1ccc(CN(C#Cc2cccc(C(=O)O)c2-n2cccc2)S(=O)(=O)c2ccc(C)cc2)cc1` [Example 386], in assay [1] (setting [5]), the inhibition at 50 µM was under 10%.
As to `COC(=O)c1cccc(C#CN(Cc2cccnc2)S(=O)(=O)c2ccc(C)cc2)c1-n1cccc1` [Example 387], the inhibition at 50 µM in assay [1] (setting [3]) was over 50%.
On the same count and under the same terms, under `O=C(NCc1ccco1)c1cccc(N2CC(Oc3ccc(CO)cc3)C2)c1-n1cccc1` [Example 388, N-(furan-2-yl-methyl)-3-(3-(4-(hydroxymethyl)phenoxy)azetidin 1-yl)-2-(1H-pyrrol-1-yl)benzamide] stands under 10%.
`COC(=O)c1cccc(C#CN(Cc2ccncc2)S(=O)(=O)c2ccc(C)cc2)c1-n1cccc1` [Example 389]: the inhibition at 50 µM in assay [1] (setting [3]) was over 50%.
With `Cc1ccc(S(=O)(=O)N(C#Cc2cccc(C(=O)O)c2-n2cccc2)Cc2ccncc2)cc1` [Example 390], the inhibition at 50 µM in assay [1] (setting [5]) was in the range of 10 to 30%.
In the case of `COC(=O)c1cccc(C2CC2c2ccccc2)c1N` (stereo not drawn) [Example 391, Methyl 2-amino-3-(2-phenylcyclopropyl)benzoate], the inhibition at 50 µM in assay [1] (setting [3]) is under 10%.
On the same count and under the same terms, under `Nc1c(C(=O)O)cccc1C1CC1c1ccccc1` (stereo not drawn) [Example 392, 2-amino-3-(2-phenylcyclopropyl)benzoic acid] stands under 10%; under `O=C(O)c1cccc(C2CC2c2ccccc2)c1-n1cccc1` (stereo not drawn) [Example 393, 3-(2-phenylcyclopropyl)-2-(1H-pyrrol-1-yl)benzoic acid], under 10%.
Take `O=C(O)c1cccc(N2CC(Oc3ccc(COC4CCOCC4)cc3)C2)c1-n1cccc1` [Example 394, 2-(1H-pyrrol-1-yl)-3-(3-(4-(((tetrahydro-2H-pyran-4-yl)oxy)methyl)phenoxy)azetidin-1-yl)benzoic acid]: the inhibition at 50 µM in assay [1] (setting [3]) is under 10%.
`COC(=O)c1cccc(N2CC(Oc3ccc(CO)cc3)C2)c1-c1cc2ccccc2s1` [Example 395, Methyl 2-(benzo[b]thiophen-2-yl)-3-(3-(4-(hydroxymethyl)phenoxy)azetidin-1-yl)benzoate]: the inhibition at 50 µM in assay [1] (setting [3]) is 10 to 30%.
On the same count and under the same terms, with `CN(C)CCNC(=O)c1cccc(N2CC(Oc3ccc(CO)cc3)C2)c1-n1cccc1` [Example 396, N-(2-dimethylamino)ethyl-3-(3-(4-(hydroxymethyl)phenoxy)azetidin-1-yl)-2-(1H-pyrrol-1-yl)benzamide] the figure was under 10%.
